# From patent publication US20220062279A1, “TREATMENT OF MOVEMENT DISORDERS” (Contera Pharma A/S, priority 2018, published 2022)
# How the values were obtained:
# [1] = system: unilaterally 6-OHDA-lesioned rats; assay: L-DOPA induced AIMs test in the 6-OHDA rat model; assay type: in vivo; details: previously shown by the applicant
# [2] = system: rats' motor performance and coordination; assay: Rotarod test; details: buspirone 0.1-30 mg/kg i.p., pentobarbital 15 mg/kg i.p., 5 or 30 min before test; compared to vehicle
# locomotor activity = assay: Open field test; details: buspirone 0.1-30 mg/kg i.p., pentobarbital 15 mg/kg i.p.; 60 minutes observation period; compared to vehicle
# Parkinson's disease = details: cited from earlier work
# LID = details: cited from earlier work
SMILES,L-DOPA-induced involuntary movements [1],Rotarod performance (time spent on the accelerating rod) [2],Open field performance (locomotor activity) (locomotor activity),disability ratings (Parkinson's disease; 100 mg/day),dyskinesia (Parkinson's disease; 100 mg/day),effects on Parkinson's disease or dyskinesia (Parkinson's disease; 10-60 mg/day),effects compared to placebo (LID; phase 2b and 3 studies),LID (LID; pre-clinical and clinical studies)
"O=C1CC2(CCCC2)CC(=O)N1CCCCN1CCN(c2ncccn2)CC1 [buspirone, 8-[4-(4-pyrimidin-2-ylpiperazin-1-yl)butyl]-8-azaspiro[4.5]decane-7,9-dione]",dose dependently reduce L-DOPA-induced involuntary movements,affect performance in the rotarod model in a dose dependent manner,dose dependently is able to affect performance in the open field test,significant worsening of disability ratings,reduced dyskinesia,did not have any effects on Parkinson's disease or dyskinesia,–,–
CCCC(C)C1(CC)C(=O)NC(=O)NC1=O (stereo not shown) [Pentobarbital],–,significantly reduces time spent on the rotarod,significantly reduced motor performance,–,–,–,–,–
"Fc1ccc(-c2cncc(CNC[C@H]3CCc4ccccc4O3)c2)cc1 [sarizotan, 1-[(2R)-3,4-dihydro-2H-chromen-2-yl]-N-([5-(4-fluorophenyl)pyridin-3-yl]methyl)methanamine]",–,–,–,–,–,–,no significant effects,reduced LID
